Test results as given in ChEMBL document CHEMBL1697781, “Assessment of the health effects of chemicals in humans: II. Construction of an adverse effects database for QSAR modeling” (Curr Drug Discov Technol, 2004).

Columns and labels:
Details in all cases: human; call rule not given here
Hepatotoxicity [1] = assay: FDA HLAED, serum glutamic pyruvic transaminase (SGPT) increase
Hepatotoxicity [2] = assay: FDA HLAED, gamma-glutamyl transferase (GGT) increase
Hepatotoxicity [3] = assay: FDA HLAED, lactate dehydrogenase (LDH) increase
Hepatotoxicity [4] = assay: FDA HLAED, alkaline phosphatase increase
Hepatotoxicity [5] = assay: FDA HLAED, liver enzyme composite activity
Hepatotoxicity [6] = assay: FDA HLAED, serum glutamic oxaloacetic transaminase (SGOT) increase
For GGT Increase - Index Value in this document: reference of the scale not given here.
For LDH Increase - Index Value in this document: reference of the scale not given here.

SMILES: Cc1nnc2n1-c1ccc(Cl)cc1C(c1ccccc1)=NC2 [ALPRAZOLAM]
- SGPT Increase - Activity Score (Hepatotoxicity [1]): Inactive
- SGPT Increase - Index Value (Hepatotoxicity [1]): 0.9
- SGPT Increase - Number of Reports (Hepatotoxicity [1]): >= 4
- GGT Increase - Activity Score (Hepatotoxicity [2]): Inactive
- GGT Increase - Index Value (Hepatotoxicity [2]): 0
- GGT Increase - Number of Reports (Hepatotoxicity [2]): < 4
- LDH Increase - Activity Score (Hepatotoxicity [3]): Inactive
- LDH Increase - Index Value (Hepatotoxicity [3]): 0.5
- LDH Increase - Number of Reports (Hepatotoxicity [3]): >= 4
- Alkaline Phosphatase Increase - Activity Score (Hepatotoxicity [4]): Inactive
- Alkaline Phosphatase Increase - Index Value (Hepatotoxicity [4]): 0.4
- Alkaline Phosphatase Increase - Number of Reports (Hepatotoxicity [4]): >= 4
- Composite Activity - Active (Hepatotoxicity [5]): 0
- Composite Activity - Marginal (Hepatotoxicity [5]): 0
- Composite Activity - Score (Hepatotoxicity [5]): Inactive
- SGOT Increase - Activity Score (Hepatotoxicity [6]): Inactive
- SGOT Increase - Index Value (Hepatotoxicity [6]): 0.7
- SGOT Increase - Number of Reports (Hepatotoxicity [6]): >= 4

SMILES: CCCCC[C@H](O)/C=C/[C@H]1[C@H](O)CC(=O)[C@@H]1CCCCCCC(=O)O [ALPROSTADIL]
- SGPT Increase - Activity Score (Hepatotoxicity [1]): Inactive
- SGPT Increase - Index Value (Hepatotoxicity [1]): 0
- SGPT Increase - Number of Reports (Hepatotoxicity [1]): < 4
- GGT Increase - Activity Score (Hepatotoxicity [2]): Inactive
- GGT Increase - Index Value (Hepatotoxicity [2]): 0
- GGT Increase - Number of Reports (Hepatotoxicity [2]): < 4
- LDH Increase - Activity Score (Hepatotoxicity [3]): Inactive
- LDH Increase - Index Value (Hepatotoxicity [3]): 0
- LDH Increase - Number of Reports (Hepatotoxicity [3]): < 4
- Alkaline Phosphatase Increase - Activity Score (Hepatotoxicity [4]): Inactive
- Alkaline Phosphatase Increase - Index Value (Hepatotoxicity [4]): 0
- Alkaline Phosphatase Increase - Number of Reports (Hepatotoxicity [4]): < 4
- Composite Activity - Active (Hepatotoxicity [5]): 0
- Composite Activity - Marginal (Hepatotoxicity [5]): 0
- Composite Activity - Score (Hepatotoxicity [5]): Inactive
- SGOT Increase - Activity Score (Hepatotoxicity [6]): Inactive
- SGOT Increase - Index Value (Hepatotoxicity [6]): 0
- SGOT Increase - Number of Reports (Hepatotoxicity [6]): < 4

SMILES: CN(C)c1nc(N(C)C)nc(N(C)C)n1 [ALTRETAMINE]
- SGPT Increase - Activity Score (Hepatotoxicity [1]): Inactive
- SGPT Increase - Index Value (Hepatotoxicity [1]): 0
- SGPT Increase - Number of Reports (Hepatotoxicity [1]): < 4
- GGT Increase - Activity Score (Hepatotoxicity [2]): Inactive
- GGT Increase - Index Value (Hepatotoxicity [2]): 0
- GGT Increase - Number of Reports (Hepatotoxicity [2]): < 4
- LDH Increase - Activity Score (Hepatotoxicity [3]): Inactive
- LDH Increase - Index Value (Hepatotoxicity [3]): 0
- LDH Increase - Number of Reports (Hepatotoxicity [3]): < 4
- Alkaline Phosphatase Increase - Activity Score (Hepatotoxicity [4]): Inactive
- Alkaline Phosphatase Increase - Index Value (Hepatotoxicity [4]): 18.3
- Alkaline Phosphatase Increase - Number of Reports (Hepatotoxicity [4]): < 4
- Composite Activity - Active (Hepatotoxicity [5]): 0
- Composite Activity - Marginal (Hepatotoxicity [5]): 0
- Composite Activity - Score (Hepatotoxicity [5]): Inactive
- SGOT Increase - Activity Score (Hepatotoxicity [6]): Inactive
- SGOT Increase - Index Value (Hepatotoxicity [6]): 0
- SGOT Increase - Number of Reports (Hepatotoxicity [6]): < 4

SMILES: CC(=O)OCC(=O)[C@@]12OC3(CCCC3)O[C@@H]1C[C@H]1[C@@H]3CCC4=CC(=O)C=C[C@]4(C)[C@@]3(F)[C@@H](O)C[C@@]12C [AMCINONIDE]
- SGPT Increase - Activity Score (Hepatotoxicity [1]): Inactive
- SGPT Increase - Index Value (Hepatotoxicity [1]): 0
- SGPT Increase - Number of Reports (Hepatotoxicity [1]): < 4
- GGT Increase - Activity Score (Hepatotoxicity [2]): Inactive
- GGT Increase - Index Value (Hepatotoxicity [2]): 0
- GGT Increase - Number of Reports (Hepatotoxicity [2]): < 4
- LDH Increase - Activity Score (Hepatotoxicity [3]): Inactive
- LDH Increase - Index Value (Hepatotoxicity [3]): 0
- LDH Increase - Number of Reports (Hepatotoxicity [3]): < 4
- Alkaline Phosphatase Increase - Activity Score (Hepatotoxicity [4]): Inactive
- Alkaline Phosphatase Increase - Index Value (Hepatotoxicity [4]): 0
- Alkaline Phosphatase Increase - Number of Reports (Hepatotoxicity [4]): < 4
- Composite Activity - Active (Hepatotoxicity [5]): 0
- Composite Activity - Marginal (Hepatotoxicity [5]): 0
- Composite Activity - Score (Hepatotoxicity [5]): Inactive
- SGOT Increase - Activity Score (Hepatotoxicity [6]): Inactive
- SGOT Increase - Index Value (Hepatotoxicity [6]): 0
- SGOT Increase - Number of Reports (Hepatotoxicity [6]): < 4

SMILES: NCCCNCCSP(=O)(O)O [AMIFOSTINE]
- SGPT Increase - Activity Score (Hepatotoxicity [1]): Inactive
- SGPT Increase - Index Value (Hepatotoxicity [1]): 0
- SGPT Increase - Number of Reports (Hepatotoxicity [1]): < 4
- GGT Increase - Activity Score (Hepatotoxicity [2]): Inactive
- GGT Increase - Index Value (Hepatotoxicity [2]): 0
- GGT Increase - Number of Reports (Hepatotoxicity [2]): < 4
- LDH Increase - Activity Score (Hepatotoxicity [3]): Inactive
- LDH Increase - Index Value (Hepatotoxicity [3]): 41.5
- LDH Increase - Number of Reports (Hepatotoxicity [3]): < 4
- Alkaline Phosphatase Increase - Activity Score (Hepatotoxicity [4]): Inactive
- Alkaline Phosphatase Increase - Index Value (Hepatotoxicity [4]): 0
- Alkaline Phosphatase Increase - Number of Reports (Hepatotoxicity [4]): < 4
- Composite Activity - Active (Hepatotoxicity [5]; Liver): 0
- Composite Activity - Marginal (Hepatotoxicity [5]; Liver): 0
- Composite Activity - Score (Hepatotoxicity [5]; Liver): Inactive
- SGOT Increase - Activity Score (Hepatotoxicity [6]): Inactive
- SGOT Increase - Index Value (Hepatotoxicity [6]): 0
- SGOT Increase - Number of Reports (Hepatotoxicity [6]): < 4

SMILES: CCC1(c2ccc(N)cc2)CCC(=O)NC1=O (stereo not drawn) [AMINOGLUTETHIMIDE]
- SGPT Increase - Activity Score (Hepatotoxicity [1]): Inactive
- SGPT Increase - Index Value (Hepatotoxicity [1]): 0
- SGPT Increase - Number of Reports (Hepatotoxicity [1]): < 4
- GGT Increase - Activity Score (Hepatotoxicity [2]): Inactive
- GGT Increase - Index Value (Hepatotoxicity [2]): 0
- GGT Increase - Number of Reports (Hepatotoxicity [2]): < 4
- LDH Increase - Activity Score (Hepatotoxicity [3]): Inactive
- LDH Increase - Index Value (Hepatotoxicity [3]): 0
- LDH Increase - Number of Reports (Hepatotoxicity [3]): < 4
- Alkaline Phosphatase Increase - Activity Score (Hepatotoxicity [4]): Inactive
- Alkaline Phosphatase Increase - Index Value (Hepatotoxicity [4]): 0
- Alkaline Phosphatase Increase - Number of Reports (Hepatotoxicity [4]): < 4
- Composite Activity - Active (Hepatotoxicity [5]): 0
- Composite Activity - Marginal (Hepatotoxicity [5]): 0
- Composite Activity - Score (Hepatotoxicity [5]): Inactive
- SGOT Increase - Activity Score (Hepatotoxicity [6]): Inactive
- SGOT Increase - Index Value (Hepatotoxicity [6]): 0
- SGOT Increase - Number of Reports (Hepatotoxicity [6]): < 4
